Among the data in patent US8053553B2, “Targeting host proteinases as a therapeutic strategy against viral and bacterial pathogens” (Socpra Sciences Sante Et Humaines, priority 2007, dated 2011) are Ki values, retold here.

Non-standard residues stand in square brackets, D forms with d. Residues, ends and D or L forms follow the SMILES beside them. Sar = CNCC(=O)O

The target in the first test is T1, furin (Homo sapiens, UniProt P09958).
T1 construct: made in house; host or cells: Drosophila S2 cells (Invitrogen expression system)
T1 sequence (P09958 108-794 limits assumed): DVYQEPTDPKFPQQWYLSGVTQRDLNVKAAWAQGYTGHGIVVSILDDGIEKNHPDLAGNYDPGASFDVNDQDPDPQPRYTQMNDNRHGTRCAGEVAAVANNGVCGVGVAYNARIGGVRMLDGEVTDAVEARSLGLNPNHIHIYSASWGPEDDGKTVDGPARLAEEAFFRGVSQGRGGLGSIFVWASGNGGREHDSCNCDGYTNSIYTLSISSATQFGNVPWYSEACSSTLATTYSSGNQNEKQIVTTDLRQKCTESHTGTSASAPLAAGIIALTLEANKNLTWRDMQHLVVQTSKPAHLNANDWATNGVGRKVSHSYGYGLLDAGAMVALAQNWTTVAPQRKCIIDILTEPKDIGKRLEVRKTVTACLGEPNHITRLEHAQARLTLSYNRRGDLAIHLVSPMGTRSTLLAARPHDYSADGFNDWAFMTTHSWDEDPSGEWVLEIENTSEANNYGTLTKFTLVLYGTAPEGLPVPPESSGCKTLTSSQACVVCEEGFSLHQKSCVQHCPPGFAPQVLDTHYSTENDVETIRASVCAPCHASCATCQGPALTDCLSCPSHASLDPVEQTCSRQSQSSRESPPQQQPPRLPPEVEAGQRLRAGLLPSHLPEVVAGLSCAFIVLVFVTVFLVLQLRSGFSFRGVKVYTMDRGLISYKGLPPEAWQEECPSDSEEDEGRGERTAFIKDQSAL
The test can be described thus: biochemical.
Conditions: not given
Consider `C[C@@H](O)[C@H](N)C(=O)N1CCC[C@H]1C(=O)N[C@@H](CCC(N)=O)C(=O)N[C@@H](CCCNC(=N)N)C(=O)N[C@@H](CCCNC(N)=O)C(=O)N[C@@H](CCCNC(=N)N)C(=O)N[C@@H](CCCNC(=N)N)C(=O)N[C@@H](CCCNC(=N)N)C(=O)N[C@@H](CCCCN)C(=O)N[C@@H](CCCCN)C(=O)N[C@@H](CCCNC(=N)N)C(=O)NCC(N)=O` [TPQR4RRRKKRG], for which the Ki (usually a dissociation constant, usually derived from enzyme kinetics or from competition with a known ligand) was over 100 nM.

Staying with this test, now noted: furin, Pyr-RTKR-AMC substrate; N-terminal deletions (Example 2, Table 6); read-out: Ki.
As for `C[C@@H](O)[C@H](NC(=O)[C@H](CCCNC(=N)N)NC(=O)[C@H](CCCCN)NC(=O)[C@H](CCCCN)NC(=O)[C@@H](N)CCCNC(=N)N)C(N)=O` [RKKRT] (H-RKKRT-NH2), the Ki amounted to 1000 nM.

Still in this test, the particulars now being: furin, Pyr-RTKR-AMC substrate; alanine scanning mutagenesis of the H5 furin cleavage sequence (Table 2); read-out: Ki.
As for `CC(C)[C@H](NC(=O)[C@H](CCCNC(=N)N)NC(=O)[C@H](CCCCN)NC(=O)[C@H](C)NC(=O)[C@H](CCCNC(=N)N)NC(=O)[C@H](CCCNC(=N)N)NC(=O)[C@H](CCCNC(=N)N)NC(=O)[C@H](CCC(=O)O)NC(=O)[C@H](CCCNC(=N)N)NC(=O)[C@@H]1CCCN1C(=O)[C@@H](N)[C@@H](C)O)C(N)=O` (H-TPRERRRAKRV-NH2), the Ki was over 100 nM.

Regarding `C[C@H](NC(=O)[C@H](CCCNC(=N)N)NC(=O)[C@H](CCCNC(=N)N)NC(=O)[C@H](CCCNC(=N)N)NC(=O)[C@H](CCC(=O)O)NC(=O)[C@H](CCCNC(=N)N)NC(=O)[C@@H]1CCCN1C(=O)[C@@H](N)[C@@H](C)O)C(=O)N[C@@H](CCCCN)C(=O)N[C@@H](CCCNC(=N)N)C(=O)N(C)CC(N)=O` (H-TPRERRRAKR[Sar]-NH2), the Ki is over 100 nM.

With `C[C@H](NC(=O)[C@H](C)NC(=O)[C@H](CCCCN)NC(=O)[C@H](CCCNC(=N)N)NC(=O)[C@H](CCCNC(=N)N)NC(=O)[C@H](CCCNC(=N)N)NC(=O)[C@H](CCC(=O)O)NC(=O)[C@H](CCCNC(=N)N)NC(=O)[C@@H]1CCCN1C(=O)[C@@H](N)[C@@H](C)O)C(N)=O` (H-TPRERRRKAA-NH2), the Ki was over 100 nM. Same read-out and setting: next, `C[C@H](NC(=O)[C@H](C)NC(=O)[C@H](CCCCN)NC(=O)[C@H](CCCNC(=N)N)NC(=O)[C@H](CCCNC(=N)N)NC(=O)[C@H](CCCNC(=N)N)NC(=O)[C@H](CCC(=O)O)NC(=O)[C@H](CCCNC(=N)N)NC(=O)[C@@H]1CCCN1C(=O)[C@@H](N)[C@@H](C)O)C(=O)NCC(N)=O` (H-TPRERRRKAAG-NH2): over 100 nM.

Take `CC(C)[C@H](NC(=O)[C@H](C)NC(=O)[C@H](C)NC(=O)[C@H](CCCCN)NC(=O)[C@H](CCCNC(=N)N)NC(=O)[C@H](CCCNC(=N)N)NC(=O)[C@H](CCCNC(=N)N)NC(=O)[C@H](CCC(=O)O)NC(=O)[C@H](CCCNC(=N)N)NC(=O)[C@@H]1CCCN1C(=O)[C@@H](N)[C@@H](C)O)C(N)=O` (H-TPRERRRKAAV-NH2): the Ki is over 100 nM. On the same count and under the same terms, next, `C[C@H](NC(=O)[C@H](CCCCN)NC(=O)[C@H](CCCNC(=N)N)NC(=O)[C@H](CCCNC(=N)N)NC(=O)[C@H](CCCNC(=N)N)NC(=O)[C@H](CCC(=O)O)NC(=O)[C@H](CCCNC(=N)N)NC(=O)[C@@H]1CCCN1C(=O)[C@@H](N)[C@@H](C)O)C(=O)N[C@@H](C)C(=O)N(C)CC(N)=O` (H-TPRERRRKAA[Sar]-NH2): over 100 nM; `C[C@H](NC(=O)[C@H](CCCCN)NC(=O)[C@H](CCCNC(=N)N)NC(=O)[C@H](CCCNC(=N)N)NC(=O)[C@H](CCCNC(=N)N)NC(=O)[C@H](CCC(=O)O)NC(=O)[C@H](CCCNC(=N)N)NC(=O)[C@@H]1CCCN1C(=O)[C@@H](N)[C@@H](C)O)C(=O)N[C@@H](CCCNC(=N)N)C(N)=O` (H-TPRERRRKAR-NH2): over 100 nM; `CC(C)[C@H](NC(=O)[C@H](CCCNC(=N)N)NC(=O)[C@H](C)NC(=O)[C@H](CCCCN)NC(=O)[C@H](CCCNC(=N)N)NC(=O)[C@H](CCCNC(=N)N)NC(=O)[C@H](CCCNC(=N)N)NC(=O)[C@H](CCC(=O)O)NC(=O)[C@H](CCCNC(=N)N)NC(=O)[C@@H]1CCCN1C(=O)[C@@H](N)[C@@H](C)O)C(N)=O` (H-TPRERRRKARV-NH2): over 100 nM.

With `C[C@H](NC(=O)[C@H](CCCCN)NC(=O)[C@H](CCCNC(=N)N)NC(=O)[C@H](CCCNC(=N)N)NC(=O)[C@H](CCCNC(=N)N)NC(=O)[C@H](CCC(=O)O)NC(=O)[C@H](CCCNC(=N)N)NC(=O)[C@@H]1CCCN1C(=O)[C@@H](N)[C@@H](C)O)C(=O)N[C@@H](CCCNC(=N)N)C(=O)N(C)CC(N)=O` (H-TPRERRRKAR[Sar]-NH2), the Ki is over 100 nM. The same measure, in the same setting: the value for `C[C@H](NC(=O)[C@H](CCCCN)NC(=O)[C@H](CCCCN)NC(=O)[C@H](CCCNC(=N)N)NC(=O)[C@H](CCCNC(=N)N)NC(=O)[C@H](CCCNC(=N)N)NC(=O)[C@H](CCC(=O)O)NC(=O)[C@H](CCCNC(=N)N)NC(=O)[C@@H]1CCCN1C(=O)[C@@H](N)[C@@H](C)O)C(N)=O` (H-TPRERRRKKA-NH2) was over 100 nM. The same measure, in the same setting: next, `CC(C)[C@H](NC(=O)[C@H](C)NC(=O)[C@H](CCCCN)NC(=O)[C@H](CCCCN)NC(=O)[C@H](CCCNC(=N)N)NC(=O)[C@H](CCCNC(=N)N)NC(=O)[C@H](CCCNC(=N)N)NC(=O)[C@H](CCC(=O)O)NC(=O)[C@H](CCCNC(=N)N)NC(=O)[C@@H]1CCCN1C(=O)[C@@H](N)[C@@H](C)O)C(N)=O` (H-TPRERRRKKAV-NH2): over 100 nM; `C[C@H](NC(=O)[C@H](CCCCN)NC(=O)[C@H](CCCCN)NC(=O)[C@H](CCCNC(=N)N)NC(=O)[C@H](CCCNC(=N)N)NC(=O)[C@H](CCCNC(=N)N)NC(=O)[C@H](CCC(=O)O)NC(=O)[C@H](CCCNC(=N)N)NC(=O)[C@@H]1CCCN1C(=O)[C@@H](N)[C@@H](C)O)C(=O)N(C)CC(N)=O` (H-TPRERRRKKA[Sar]-NH2): over 100 nM. Still for that read-out and setting: the value for `C[C@@H](O)[C@H](N)C(=O)N1CCC[C@H]1C(=O)N[C@@H](CCCNC(=N)N)C(=O)N[C@@H](CCC(=O)O)C(=O)N[C@@H](CCCNC(=N)N)C(=O)N[C@@H](CCCNC(=N)N)C(=O)N[C@@H](CCCNC(=N)N)C(=O)N[C@@H](CCCCN)C(=O)N[C@@H](CCCCN)C(=O)N[C@@H](CCCNC(=N)N)C(N)=O` (H-TPRERRRKKR-NH2) was over 100 nM; that for `CC(C)[C@H](NC(=O)[C@H](CCCNC(=N)N)NC(=O)[C@H](CCCCN)NC(=O)[C@H](CCCCN)NC(=O)[C@H](CCCNC(=N)N)NC(=O)[C@H](CCCNC(=N)N)NC(=O)[C@H](CCCNC(=N)N)NC(=O)[C@H](CCC(=O)O)NC(=O)[C@H](CCCNC(=N)N)NC(=O)[C@@H]1CCCN1C(=O)[C@@H](N)[C@@H](C)O)C(N)=O` (H-TPRERRRKKRV-NH2) was over 100 nM; that for `C[C@@H](O)[C@H](N)C(=O)N1CCC[C@H]1C(=O)N[C@@H](CCCNC(=N)N)C(=O)N[C@@H](CCC(=O)O)C(=O)N[C@@H](CCCNC(=N)N)C(=O)N[C@@H](CCCNC(=N)N)C(=O)N[C@@H](CCCNC(=N)N)C(=O)N[C@@H](CCCCN)C(=O)N[C@@H](CCCCN)C(=O)N[C@@H](CCCNC(=N)N)C(=O)N(C)CC(N)=O` (H-TPRERRRKKR[Sar]-NH2) was over 100 nM.

Staying with this test, now noted: furin, Pyr-RTKR-AMC substrate; optimization of the inhibitory peptides (Table 3); read-out: Ki.
As for `C[C@@H](O)[C@H](N)C(=O)N1CCC[C@H]1C(=O)N[C@@H](CCCN=C(N)N)C(=O)NCC(=O)N[C@@H](CCCN=C(N)N)C(=O)N[C@@H](CCCN=C(N)N)C(=O)N[C@@H](CCCN=C(N)N)C(=O)N[C@@H](CCCCN)C(=O)N[C@@H](CCCCN)C(=O)N[C@@H](CCCN=C(N)N)C(=O)NCC(N)=O` (H-TPRGRRRKKRG-NH2), the Ki was determined as 47 nM. Same read-out and setting: the value for `C[C@@H](O)[C@H](N)C(=O)N1CCC[C@H]1C(=O)N[C@@H](CCC(N)=O)C(=O)N[C@@H](CCCNC(=N)N)C(=O)NCCC(=O)N[C@@H](CCCNC(=N)N)C(=O)N[C@@H](CCCNC(=N)N)C(=O)N[C@@H](CCCNC(=N)N)C(=O)N[C@@H](CCCCN)C(=O)N[C@@H](CCCCN)C(=O)N[C@@H](CCCNC(=N)N)C(=O)NCC(N)=O` [TPQR1RRRKKRG] was over 100 nM. The same measure, in the same setting: next, `C[C@@H](O)[C@H](N)C(=O)N1CCC[C@H]1C(=O)N[C@@H](CCC(N)=O)C(=O)N[C@@H](CCCNC(=N)N)C(=O)NCCCCCC(=O)N[C@@H](CCCNC(=N)N)C(=O)N[C@@H](CCCNC(=N)N)C(=O)N[C@@H](CCCNC(=N)N)C(=O)N[C@@H](CCCCN)C(=O)N[C@@H](CCCCN)C(=O)N[C@@H](CCCNC(=N)N)C(=O)NCC(N)=O` [TPQR2RRRKKRG]: over 100 nM; `C[C@@H](O)[C@H](N)C(=O)N1CCC[C@H]1C(=O)N[C@@H](CCC(N)=O)C(=O)N[C@@H](CCCNC(=N)N)C(=O)N[C@@H](CC1CCCCC1)C(=O)N[C@@H](CCCNC(=N)N)C(=O)N[C@@H](CCCNC(=N)N)C(=O)N[C@@H](CCCNC(=N)N)C(=O)N[C@@H](CCCCN)C(=O)N[C@@H](CCCCN)C(=O)N[C@@H](CCCNC(=N)N)C(=O)NCC(N)=O` [TPQR7RRRKKRG]: over 100 nM. Consider `CC[C@H](NC(=O)[C@H](CCCNC(=N)N)NC(=O)[C@H](CCC(N)=O)NC(=O)[C@@H]1CCCN1C(=O)[C@@H](N)[C@@H](C)O)C(=O)N[C@@H](CCCNC(=N)N)C(=O)N[C@@H](CCCNC(=N)N)C(=O)N[C@@H](CCCNC(=N)N)C(=O)N[C@@H](CCCCN)C(=O)N[C@@H](CCCCN)C(=O)N[C@@H](CCCNC(=N)N)C(=O)NCC(N)=O` [TPQR8RRRKKRG], for which the Ki was over 100 nM. The same measure, in the same setting: the value for `C[C@@H](O)[C@H](N)C(=O)N1CCC[C@H]1C(=O)N[C@@H](CCC(N)=O)C(=O)N[C@@H](CCCNC(=N)N)C(=O)N[C@H](CCC(=O)O)C(=O)N[C@@H](CCCNC(=N)N)C(=O)N[C@@H](CCCNC(=N)N)C(=O)N[C@@H](CCCNC(=N)N)C(=O)N[C@@H](CCCCN)C(=O)N[C@@H](CCCCN)C(=O)N[C@@H](CCCNC(=N)N)C(=O)NCC(N)=O` [TPQReRRRKKRG] was over 100 nM; that for `C[C@@H](O)[C@H](N)C(=O)N1CCC[C@H]1C(=O)N[C@@H](CCC(N)=O)C(=O)N[C@@H](CCCNC(=N)N)C(=O)N[C@H](CCCCN)C(=O)N[C@@H](CCCNC(=N)N)C(=O)N[C@@H](CCCNC(=N)N)C(=O)N[C@@H](CCCNC(=N)N)C(=O)N[C@@H](CCCCN)C(=O)N[C@@H](CCCCN)C(=O)N[C@@H](CCCNC(=N)N)C(=O)NCC(N)=O` [TPQRkRRRKKRG] was over 100 nM. Same read-out and setting: next, `C[C@@H](O)[C@H](N)C(=O)N1CCC[C@H]1C(=O)N[C@@H](CCC(N)=O)C(=O)N[C@@H](CCCNC(=N)N)C(=O)N[C@H](CCCNC(=N)N)C(=O)N[C@@H](CCCNC(=N)N)C(=O)N[C@@H](CCCNC(=N)N)C(=O)N[C@@H](CCCNC(=N)N)C(=O)N[C@@H](CCCCN)C(=O)N[C@@H](CCCCN)C(=O)N[C@@H](CCCNC(=N)N)C(=O)NCC(N)=O` [TPQRrRRRKKRG]: over 100 nM.
